The source made the active and inactive calls. The rule behind the calls is not given here.
How the values were obtained:
[1] = Inhibition of Cu2+-induced amyloid beta (1 to 42 residues) (unknown origin) aggregation at 50 uM after 24 hrs by thioflavin T-based fluorometric assay relative to control
[2] = target: T1, Amyloid-beta precursor protein (Homo sapiens, UniProt P05067); assay: Inhibition of HFIP-pretreated amyloid beta (1 to 42) (unknown origin) self-induced aggregation at 50 uM after 48 hrs by thioflavin T-based fluorometric assay relative to control
T1 sequence (P05067 whole entry): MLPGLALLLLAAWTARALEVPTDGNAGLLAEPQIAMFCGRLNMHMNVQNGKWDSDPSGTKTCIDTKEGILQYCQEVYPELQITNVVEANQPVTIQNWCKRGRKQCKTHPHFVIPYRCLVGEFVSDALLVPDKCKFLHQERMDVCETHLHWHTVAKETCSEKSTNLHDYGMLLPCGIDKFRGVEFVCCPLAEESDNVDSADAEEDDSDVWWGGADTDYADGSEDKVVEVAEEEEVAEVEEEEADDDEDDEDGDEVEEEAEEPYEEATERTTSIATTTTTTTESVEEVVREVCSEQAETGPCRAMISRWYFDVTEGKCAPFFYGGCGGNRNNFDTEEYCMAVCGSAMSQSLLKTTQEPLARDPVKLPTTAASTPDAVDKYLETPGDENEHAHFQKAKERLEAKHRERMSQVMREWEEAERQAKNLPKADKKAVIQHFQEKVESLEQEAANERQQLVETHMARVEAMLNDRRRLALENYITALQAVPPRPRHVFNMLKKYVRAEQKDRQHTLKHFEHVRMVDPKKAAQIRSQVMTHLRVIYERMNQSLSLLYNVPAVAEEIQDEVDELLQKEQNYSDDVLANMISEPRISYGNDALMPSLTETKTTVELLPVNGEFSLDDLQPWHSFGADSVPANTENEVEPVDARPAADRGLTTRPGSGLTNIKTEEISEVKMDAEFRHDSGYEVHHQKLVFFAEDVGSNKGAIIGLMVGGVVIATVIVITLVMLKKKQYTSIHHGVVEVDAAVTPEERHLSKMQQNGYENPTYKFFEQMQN

[3] = target: T1, Amyloid-beta precursor protein; assay: Inhibition of HFIP-pretreated amyloid beta (1 to 42) (unknown origin) self-induced aggregation at 25 uM after 48 hrs by thioflavin T-based fluorometric assay relative to control
[4] = target: T1, Amyloid-beta precursor protein; assay: Inhibition of HFIP-pretreated amyloid beta (1 to 42) (unknown origin) self-induced aggregation at 75 uM after 48 hrs by thioflavin T-based fluorometric assay relative to control
[5] = target: T1, Amyloid-beta precursor protein; assay: Inhibition of HFIP-pretreated amyloid beta (1 to 42) (unknown origin) self-induced aggregation after 48 hrs by thioflavin T-based fluorometric assay
[6] = Metal chelating activity assessed as Cu2+-compound complex formation by measuring shift in maximum absorption wavelength at 30 uM after 30 mins by UV-Vis spectroscopic method
[7] = Metal chelating activity assessed as Fe2+-compound complex formation by measuring shift in maximum absorption wavelength at 30 uM after 30 mins by UV-Vis spectroscopic method
[8] = Metal chelating activity assessed as Al3+-compound complex formation at 30 uM after 30 mins by UV-Vis spectroscopic method
[9] = Metal chelating activity assessed as Zn2+-compound complex formation at 30 uM after 30 mins by UV-Vis spectroscopic method
[10] = Metal chelating activity assessed as stoichiometric ratio of Cu2+-compound complex at 30 uM after 30 mins by Job plot analysis
[11] = Antioxidant activity assessed as trolox equivalent of AAPH-induced radical scavenging activity at 1 to 8 uM pretreated for 15 mins followed by AAPH addition measured at 1 min interval for 80 mins by ORAC-FL assay; type: functional
[12] = target: T1, Amyloid-beta precursor protein; assay: Disaggregation of self-induced amyloid beta (1 to 42) (unknown origin) assessed as appearance of sparse fibrils at 50 uM after 48 hrs by transmission electron microscopic analysis
[13] = target: Acetylcholinesterase (Electrophorus electricus) (UniProt O42275); assay: Potency index, ratio of donepezil effect to test compound effect for inhibition of electric eel AChE-induced amyloid beta (1 to 42) aggregation
Acetylcholinesterase (Electrophorus electricus), sequence (O42275 24-633 limits assumed): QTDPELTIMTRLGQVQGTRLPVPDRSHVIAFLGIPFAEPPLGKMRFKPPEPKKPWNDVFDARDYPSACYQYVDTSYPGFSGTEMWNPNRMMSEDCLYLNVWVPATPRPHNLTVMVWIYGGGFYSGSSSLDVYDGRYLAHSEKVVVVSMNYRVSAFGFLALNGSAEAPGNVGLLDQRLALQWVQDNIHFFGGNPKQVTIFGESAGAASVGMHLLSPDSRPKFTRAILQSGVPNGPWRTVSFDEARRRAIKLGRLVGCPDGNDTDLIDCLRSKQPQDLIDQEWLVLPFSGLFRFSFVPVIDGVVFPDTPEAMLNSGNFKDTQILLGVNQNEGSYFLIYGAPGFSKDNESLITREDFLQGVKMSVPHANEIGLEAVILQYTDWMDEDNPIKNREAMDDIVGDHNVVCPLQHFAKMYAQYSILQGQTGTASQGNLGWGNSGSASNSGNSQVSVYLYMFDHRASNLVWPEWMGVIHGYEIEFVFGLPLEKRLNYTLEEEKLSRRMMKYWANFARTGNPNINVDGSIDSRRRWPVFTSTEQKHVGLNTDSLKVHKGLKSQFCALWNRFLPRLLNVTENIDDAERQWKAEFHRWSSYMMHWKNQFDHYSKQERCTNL

[14] = Metal chelating activity assessed as Al3+-compound complex formation by measuring shift in maximum absorption wavelength at 30 uM after 30 mins by UV-Vis spectroscopic method
[15] = Metal chelating activity assessed as Zn2+-compound complex formation by measuring shift in maximum absorption wavelength at 30 uM after 30 mins by UV-Vis spectroscopic method

COc1cc(/C=C/C(=O)CC(=O)/C=C/c2ccc(O)c(OC)c2)ccc1O
inhibition [1]: 52.9%

CCOc1cc(CNc2ccccc2)ccc1Oc1ccnc2cc(Cl)ccc12
inhibition [2]: 53.6%
inhibition [3]: 37.1%
inhibition [4]: 3.37%
IC50 [5]: 44.5 µM
inhibition [1]: 22.4%
Activity [6]: 305 nm
Activity [7]: 305 nm
Activity [8]: Active
Activity [9]: Active
Ratio [10]: 0.5
Activity (umolequiv/umol) [11]: 2.72
Activity [12]: Active
Ratio [13]: > 2

CCOc1cc(CNc2ccc(C)cc2)ccc1Oc1ccnc2cc(Cl)ccc12
inhibition [2]: 46.8%
Activity (umolequiv/umol) [11]: 2.28

CCOc1cc(CNc2ccc(F)cc2F)ccc1Oc1ccnc2cc(Cl)ccc12
inhibition [2]: 27.8%
Activity (umolequiv/umol) [11]: 2.37

CCOc1cc(CNc2ccccn2)ccc1Oc1ccnc2cc(Cl)ccc12
inhibition [2]: 41.5%
Activity (umolequiv/umol) [11]: 0.55

CCOc1cc(CNc2cccc(C)n2)ccc1Oc1ccnc2cc(Cl)ccc12
inhibition [2]: 41.6%
Activity (umolequiv/umol) [11]: 0.87

CCOc1cc(CNc2ccc(OC)cc2)ccc1Oc1ccnc2cc(Cl)ccc12
inhibition [2]: 53.7%
inhibition [3]: 26.7%
inhibition [4]: 6.89%
IC50 [5]: 46.4 µM
inhibition [1]: 32.7%
Activity [6]: 304 nm
Activity [7]: 305 nm
Activity [14]: 304 nm
Activity [15]: 304 nm
Ratio [10]: 0.8
Activity (umolequiv/umol) [11]: 1.95
Activity [12]: Active
Ratio [13]: > 2

CCOc1cc(CNc2cccc(C(F)(F)F)c2)ccc1Oc1ccnc2cc(Cl)ccc12
inhibition [2]: 30%
Activity (umolequiv/umol) [11]: 1.56

Reference: ChEMBL document CHEMBL4368857, “New amyloid beta-disaggregating agents: synthesis, pharmacological evaluation, crystal structure and molecular docking of N-(4-((7-chloroquinolin-4-yl)oxy)-3-ethoxybenzyl)amines” (Medchemcomm, 2018)
